Results on 107 compounds are retold here after a melting point compilation (Tetko et al.).

By melting point is commonly meant the temperature of the solid-liquid transition.

As for `O=C1c2c(Br)c(Br)c(Br)c(Br)c2C(=O)N1CCN1C(=O)c2c(Br)c(Br)c(Br)c(Br)c2C1=O`, the melting point is 445 °C.

Turning to `CCOC(=O)c1cnc2n(c1=O)CCS2`, the melting point was 175 to 176 °C.

In turn, `NNCc1ccccc1` gave a melting point of 26 °C.

Take `COc1cc(CC#N)c(OC)cc1CC#N`: the melting point is 198 to 200 °C.

`COc1c(Cl)ccc(Cl)c1C(=O)O` returned a melting point of 115 °C.

In the case of `N#Cc1ccc(C(F)(F)F)cc1[N+](=O)[O-]`, the melting point was 44 °C.

On to `Oc1ccc(-n2cccc2)cc1`, for which the melting point was in the range of 119 to 124 °C.

On to `N#Cc1ccc(N2N=N2)cc1`, for which the melting point is 70 °C.

The compound `Cc1ccc(N)c(Cl)n1` gave a melting point of 88 to 91 °C.

In turn, `O=C(O)c1ccccc1C(c1ccc(O)cc1)c1ccc(O)cc1` had a melting point of 238 °C.

For the compound `N#Cc1cc(I)c(O)c([N+](=O)[O-])c1`, the melting point turned out to be 138 °C.

Compound `Cc1c(-c2ccccc2)oc2c(C(=O)O)cccc2c1=O` yielded a melting point of 235 °C.

For `O=C(Oc1ccccc1)n1c(C(F)(F)F)nc2cc(Cl)c(Cl)cc21`, the melting point amounted to 103 °C.

Turning to `Cc1cc(=O)oc2cc(OC3OCC(O)C(O)C3O)ccc12` (configuration not stated), the melting point came to 223 °C.

Take `Cc1onc2c(-c3ccc(Cl)cc3)nnc(-c3ccccc3)c12`: the melting point was determined as 171 °C.

`CCC(C#N)CC#N` (configuration not stated) displayed a melting point of -41 °C.

For `COc1ccc(Br)cc1CO`, the melting point was in the range of 68 to 73 °C.

The compound `COc1ccc(-c2cc[nH]n2)cc1` came in with a melting point of 127 to 130 °C.

Compound `CCc1ssc(=O)c1-c1ccccc1` gave a melting point of 82 °C.

Regarding `Cc1cc2ncc(C(=O)O)c(C)n2n1`, the melting point was in the range of 250 to 251 °C.

As to `CCCCCCCCCC(=O)OCC`, the melting point was -20 °C.

In the case of `Cc1ccc(C(=O)N(NC(=O)c2ccccc2)C(C)(C)C)cc1`, the melting point is 188 °C.

Turning to `O=C1NC2CCCCC12` (configuration not stated), the melting point fell in the range of 48 to 50 °C.

`CC(C)(C)c1ccc(-c2nnc(S)n2-c2cccc(C(F)(F)F)c2)cc1` had a melting point of 256 to 260 °C.

In the case of `CC1Cc2ccccc2CC1C` (configuration not stated), the melting point was -5 °C.

With `Cc1ccc2oc(C(=O)O)cc(=O)c2c1`, the melting point lay in the range of 267 to 270 °C.

As to `CC(C)(C)OC(=O)N1CC(C#N)C1`, the melting point came to 70 °C.

Compound `O=C(O)c1cc2ccccc2[nH]1` registered a melting point of 206 °C.

As to `N#CC1=C(N)Oc2[nH]nc(C(F)(F)F)c2C1c1ccc(Cl)cc1Cl` (configuration not stated), the melting point came to 199 °C.

For the compound `COc1cccc(C(=O)C(=O)c2cccc(OC)c2)c1`, the melting point was found to be 82 °C.

Consider `Cc1nc2cc([N+](=O)[O-])ccc2[nH]1`, for which the melting point was found to be 224 °C.

For the compound `CN(C)[Si](C)(N(C)C)N(C)C`, the melting point is -11 °C.

Compound `CCS(=O)(=O)c1ccccc1` had a melting point of 42 °C.

As for `C[C@]12CCC(=O)C=C1C(=O)C[C@@H]1[C@@H]2CC[C@]2(C)C(=O)CC[C@@H]12`, the melting point came to 222 °C.

Compound `NCCc1ccc(-c2ccccc2)cc1` showed a melting point of 53 to 55 °C.

Regarding `COc1ccc2c3c([nH]c2c1)C1CC2C(CC(O)C(OC)C2C(=O)O)CN1CC3` (configuration not stated), the melting point is 242 °C.

`CC(CN)C(=O)O` (racemic): the melting point was in the range of 177 to 181 °C.

Compound `CC(C)C1=C(O)C(=O)C2=C(C1=O)C(O)CC1C(C)(C)CCCC21C` (configuration not stated) showed a melting point of 214 °C.

With `CCOC(=O)c1c(Nc2ccc(OC)cc2)sc2c(-c3ccc(Cl)cc3)c(C#N)c(N)nc12`, the melting point lay within 220 to 224 °C.

Regarding `Nc1ccc2c(c1)CCCC2=O`, the melting point is 130 to 131 °C.

`CNc1ccc2oc(CC3OC4(CCC3C)OC(C(C)C(=O)c3ccc[nH]3)C(C)CC4C)nc2c1C(=O)O` (configuration not stated) gave a melting point of 182 °C.

The compound `CCCCc1cccc2ccccc12` yielded a melting point of -19.8 °C.

With `C[C@]12CC(=O)C[C@@]1(C)CC(=O)C2`, the melting point lay in the range of 228 to 230 °C.

On to `Clc1ccc(CSc2ccc(Cl)cc2)cc1`, for which the melting point came to 75 °C.

With `COc1c(Br)cc(Br)cc1Br`, the melting point worked out at 88 °C.

The compound `CC(=O)c1ccc(C2CCCCC2)cc1` showed a melting point of 68 °C.

On to `FC(F)=C(Cl)Cl`, for which the melting point is -116 °C.

In the case of `CC12CCC(CCC1=O)C2(C)C` (configuration not stated), the melting point came out at 193 °C.

For the compound `Cc1cc(C)c(NC(N)=S)c(C)c1`, the melting point amounted to 231 °C.

Regarding `NNC(=O)c1cccnc1`, the melting point worked out at 162 °C.

On to `Sc1nc(-c2ccccc2)c(-c2ccccc2)[nH]1`, for which the melting point turned out to be 300 °C.

As to `Cc1ccccc1N(C)C`, the melting point was -60 °C.

Compound `O=[N+]([O-])c1cccnc1N1CCN(CCO)CC1` gave a melting point of 82 to 83 °C.

Compound `FC(F)C(F)(F)C(F)(F)C(F)(F)C(F)(F)C(F)(F)C(F)(F)C(F)(F)C(F)(F)C(F)F` registered a melting point of 42 to 43 °C.

`Cc1cc(F)ccc1O` showed a melting point of 37 to 38 °C.

In turn, `C=C(Br)CC(NC(=O)OCC1c2ccccc2-c2ccccc21)C(=O)O` (configuration not stated) showed a melting point of 120 °C.

Consider `CC1=C(C(=O)O)N2C(=O)C(NC(=O)C(N)c3ccccc3)C2SC1` (configuration not stated), for which the melting point was found to be 327 °C.

Regarding `OCC1OC(O)C(F)C(O)C1O` (configuration not stated), the melting point is 170 to 176 °C.

The compound `Ic1ccc2[nH]ccc2c1` gave a melting point of 99 °C.

Regarding `Fc1c(F)c(F)c(Sc2c(F)c(F)c(F)c(F)c2F)c(F)c1F`, the melting point worked out at 87 °C.

`O=C(Cl)c1cccnc1Oc1ccc(Cl)cc1` had a melting point of 79 to 80 °C.

In the case of `FC(F)=C(F)Cl`, the melting point is -109 °C.

`O=C(c1ccccc1)C(c1ccccc1)(c1ccccc1)c1ccccc1` had a melting point of 182 °C.

Consider `O=C1[C@H]2CC[C@@H]1[C@H]1C=C[C@@H]2O1`, for which the melting point is 97 °C.

On to `COC(=O)c1ccc(C(=O)O)cc1[N+](=O)[O-]`, for which the melting point is 175 °C.

Compound `Nc1ncn(C2OC(CO)C(O)C2O)c(=O)n1` (configuration not stated) returned a melting point of 229 °C.

The compound `O=C(O)CCC(=O)OOC(=O)CCC(=O)O` returned a melting point of 127 °C.

The compound `COc1ccc2c(c1)C(=O)CC(c1ccccc1)O2` (configuration not stated) had a melting point of 142 °C.

In turn, `O=S(=O)(Cl)c1c(Cl)cc(Br)cc1Cl` had a melting point of 45 °C.

`COC(=O)c1ccc(OC)nc1`: the melting point is 51 °C.

Take `Sc1cc(Cl)c(Cl)cc1Cl`: the melting point fell in the range of 117 to 118 °C.

Turning to `Cn1c(=O)c(C2=NNC(=O)C2=CNc2nccs2)c(O)c2ccccc21`, the melting point came out at 248 °C.

The compound `c1ccc(N2CCOCC2)cc1` came in with a melting point of 51 to 54 °C.

In turn, `O=C1NC(=O)C(=NNc2ccc(Br)cc2)C(=O)N1` yielded a melting point of 295 °C.

With `NC(N)=NS(=O)(=O)c1ccc(N)cc1`, the melting point was determined as 192 °C.

`NC1(P(=O)(O)O)CCCC1` had a melting point of 274 to 276 °C.

In turn, `Cc1ccc(S(=O)(=O)OC2CCC3C4CCC5CC(=O)CCC5(C)C4CCC23C)cc1` (configuration not stated) registered a melting point of 179 to 180 °C.

As to `N#Cc1ccc(-c2nccs2)cc1`, the melting point is 102 to 103 °C.

As for `O=c1c(C2CC(c3ccc(-c4ccc(Br)cc4)cc3)Cc3ccccc32)c(O)sc2ccccc12` (configuration not stated), the melting point is 235 °C.

With `N=c1oc2ccccc2cc1CSN`, the melting point came to 165 °C.

As for `O=C1/C(=C/c2ccccc2O)SC(=S)N1CN1CCOCC1`, the melting point came out at 166 °C.

Consider `Cc1ccc(C(=O)[C@@H]2CCCC[C@H]2C(=O)O)cc1` (relative stereo), for which the melting point fell in the range of 168 to 171 °C.

Take `c1ccc(SCc2ccc(CN3CCOCC3)cc2)cc1`: the melting point worked out at 219 °C.

In the case of `CC(=O)OCC(=O)[C@@]1(O)CC[C@H]2[C@@H]3CCC4=CC(=O)C=C[C@]4(C)[C@H]3[C@@H](O)C[C@@]21C`, the melting point was 238 °C.

With `O=C(Cl)c1cc(I)ccc1F`, the melting point is 29 °C.

In turn, `CC(=O)n1c(C)c(C)c2ccccc21` came in with a melting point of 74 °C.

The compound `O=C1c2ccccc2CC2C=CC=CN12` (configuration not stated) registered a melting point of 93 °C.

The compound `CC(=O)OCC1OC(S)C(OC(C)=O)C(OC(C)=O)C1OC(C)=O` (configuration not stated) showed a melting point of 114 to 119 °C.

`O=Cc1cc2ccccc2n1S(=O)(=O)c1ccccc1` displayed a melting point of 111 to 112 °C.

Take `Nc1ccc(Oc2ccc([N+](=O)[O-])cc2)cc1`: the melting point lay within 132 to 134 °C.

Consider `N#CC1(O)C(C2COC3(CCCCC3)O2)OC2OC3(CCCCC3)OC21` (configuration not stated), for which the melting point was 107 to 113 °C.

Compound `Cc1ncoc1C(=O)O` displayed a melting point of 239 to 240 °C.

In the case of `COC(=O)C1CC(c2ccccc2)c2ccccc21` (configuration not stated), the melting point is 91 °C.

In the case of `N#CC1=C(N)N2C(=C(C#N)C1c1ccc(Cl)cc1)Sc1ccccc12` (configuration not stated), the melting point turned out to be 209 °C.

As to `C[Si](C)(C)O[Si](C)(C)O[Si](C)(C)O[Si](C)(C)O[Si](C)(C)O[Si](C)(C)C`, the melting point is -59 °C.

The compound `ClCc1cc(-c2ccccc2)on1` displayed a melting point of 48 to 49 °C.

In the case of `Brc1cc(Br)c(Br)c(Br)c1Br`, the melting point came to 160 °C.

`COc1ccc(N2C(=O)C3ON=C(C(=O)c4ccc(C)cc4)C3C2=O)cc1` (configuration not stated) yielded a melting point of 126 °C.

Regarding `Cc1cc(O)c(C(C)C)cc1SC#N`, the melting point fell in the range of 103 to 105 °C.

The compound `O=C(O)C(F)(F)C(F)(F)C(F)(F)C(F)(F)C(F)(F)C(F)F` returned a melting point of 34 °C.

Regarding `Nc1ccc2c(n1)[nH]c1ccccc12`, the melting point was 202 °C.

Compound `CNc1ccccc1C(N)=O` showed a melting point of 161 to 163 °C.

For `CC1=C[C@H](O)[C@H]2C[C@@H]1C2(C)C`, the melting point amounted to 70.8 °C.

`Cc1ccc(Sc2ccc([N+](=O)[O-])cc2C=O)cc1`: the melting point lay within 157 to 158 °C.

As to `Oc1cc(C(F)(F)F)nc2c(Cl)cccc12`, the melting point came out at 139 °C.

For `C=CCNC(=S)Nc1sc2c(c1C(=O)OCC)CCN(Cc1ccccc1)C2`, the melting point fell in the range of 138 to 139 °C.

In turn, `CCCOc1ccc2c(c1)C(c1ccc(OC)cc1OCC(=O)O)C(C(=O)O)C2c1ccc2c(c1)OCO2` (configuration not stated) registered a melting point of 254 °C.
